What was measured:
HiBit-BRM fusion protein = target: T1, HiBit-BRM fusion protein (Homo sapiens, UniProt P51531); assay: HiBiT-BRM cell-based degradation assay (Nano-Glo HiBiT Lytic Detection, 24 h); conditions: stable HeLa cell line expressing HiBiT-BRM, top dose 30 μM
T1 construct: expressed in transfected cells
In short: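 Percent degradation was scaled between DMSO-treated cells and cells given 2 μM of a known BRM/BRG1 degrader. Readout was NanoBiT luminescence after lytic detection. HeLa cells stably expressing HiBiT-BRM were dosed for 24 h, 10 points, 3-fold steps from 30 μM final, in duplicate.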

[1] = target: T2, HiBit-BRG1 fusion protein (Homo sapiens, UniProt P51532); assay: HiBiT-BRG1 cell-based degradation assay (Nano-Glo HiBiT Lytic Detection, 24 h); conditions: stable HeLa cell line expressing HiBit-BRG1 and LgBit, top dose 30 μM, read-out: BRG1 HiBit Degradation Maximum (%)
T2 construct: expressed in transfected cells
T2 sequence (P51532 whole entry, the tested form may be a part): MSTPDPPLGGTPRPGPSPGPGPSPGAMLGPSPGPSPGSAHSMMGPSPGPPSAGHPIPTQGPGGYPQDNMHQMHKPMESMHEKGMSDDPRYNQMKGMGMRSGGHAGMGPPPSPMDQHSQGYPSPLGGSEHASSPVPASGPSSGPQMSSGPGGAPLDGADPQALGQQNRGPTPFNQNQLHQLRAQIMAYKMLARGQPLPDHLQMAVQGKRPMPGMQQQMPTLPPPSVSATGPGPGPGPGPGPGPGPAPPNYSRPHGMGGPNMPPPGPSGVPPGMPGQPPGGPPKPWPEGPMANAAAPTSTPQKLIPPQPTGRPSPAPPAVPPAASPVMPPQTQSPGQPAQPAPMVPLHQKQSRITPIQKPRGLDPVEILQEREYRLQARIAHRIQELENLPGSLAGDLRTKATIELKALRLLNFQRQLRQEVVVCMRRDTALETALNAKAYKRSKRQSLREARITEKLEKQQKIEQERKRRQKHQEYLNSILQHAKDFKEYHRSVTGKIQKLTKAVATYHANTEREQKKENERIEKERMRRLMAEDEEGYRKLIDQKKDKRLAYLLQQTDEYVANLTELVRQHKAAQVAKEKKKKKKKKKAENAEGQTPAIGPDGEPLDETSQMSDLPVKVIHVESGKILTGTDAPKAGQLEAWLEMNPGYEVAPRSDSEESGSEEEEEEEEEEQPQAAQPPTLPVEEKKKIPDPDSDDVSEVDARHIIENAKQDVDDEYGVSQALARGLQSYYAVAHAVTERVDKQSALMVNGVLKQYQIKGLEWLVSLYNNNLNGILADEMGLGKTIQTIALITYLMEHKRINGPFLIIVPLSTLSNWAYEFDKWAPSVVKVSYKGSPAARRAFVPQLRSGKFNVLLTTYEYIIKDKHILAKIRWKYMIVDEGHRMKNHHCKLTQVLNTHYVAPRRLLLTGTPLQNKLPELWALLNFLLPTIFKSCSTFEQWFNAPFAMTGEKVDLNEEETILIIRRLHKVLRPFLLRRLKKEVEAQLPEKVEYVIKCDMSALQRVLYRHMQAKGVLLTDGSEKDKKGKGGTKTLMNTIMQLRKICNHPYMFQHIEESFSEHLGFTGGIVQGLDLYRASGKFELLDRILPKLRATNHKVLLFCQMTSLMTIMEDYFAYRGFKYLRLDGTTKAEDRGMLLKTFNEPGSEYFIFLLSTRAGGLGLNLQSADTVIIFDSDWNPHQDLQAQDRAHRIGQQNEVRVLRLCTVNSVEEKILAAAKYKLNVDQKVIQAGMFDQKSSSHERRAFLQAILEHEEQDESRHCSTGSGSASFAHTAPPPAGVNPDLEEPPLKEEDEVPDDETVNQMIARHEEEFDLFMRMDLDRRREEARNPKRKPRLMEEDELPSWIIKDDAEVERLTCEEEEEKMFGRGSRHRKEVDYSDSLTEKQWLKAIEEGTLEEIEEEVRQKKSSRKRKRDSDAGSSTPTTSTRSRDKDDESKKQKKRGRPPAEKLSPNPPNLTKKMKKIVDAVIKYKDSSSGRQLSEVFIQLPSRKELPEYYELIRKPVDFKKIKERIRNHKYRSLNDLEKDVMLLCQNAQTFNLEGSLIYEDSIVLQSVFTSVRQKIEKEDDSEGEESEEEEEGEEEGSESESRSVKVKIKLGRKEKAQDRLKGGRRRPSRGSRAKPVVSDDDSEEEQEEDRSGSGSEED
In short: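 HeLa cells stably expressing HiBiT-BRG1 plus LgBiT were treated with 10-point 3-fold compound dilutions (top 30 μM final) for 24 h. Lytic Nano-Glo HiBiT luminescence was read. % degradation was normalised between DMSO (high control) and 2 μM of a reference BRM/BRG1 degrader (low control).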

T1 sequence (P51531 whole entry, the tested form may be a part): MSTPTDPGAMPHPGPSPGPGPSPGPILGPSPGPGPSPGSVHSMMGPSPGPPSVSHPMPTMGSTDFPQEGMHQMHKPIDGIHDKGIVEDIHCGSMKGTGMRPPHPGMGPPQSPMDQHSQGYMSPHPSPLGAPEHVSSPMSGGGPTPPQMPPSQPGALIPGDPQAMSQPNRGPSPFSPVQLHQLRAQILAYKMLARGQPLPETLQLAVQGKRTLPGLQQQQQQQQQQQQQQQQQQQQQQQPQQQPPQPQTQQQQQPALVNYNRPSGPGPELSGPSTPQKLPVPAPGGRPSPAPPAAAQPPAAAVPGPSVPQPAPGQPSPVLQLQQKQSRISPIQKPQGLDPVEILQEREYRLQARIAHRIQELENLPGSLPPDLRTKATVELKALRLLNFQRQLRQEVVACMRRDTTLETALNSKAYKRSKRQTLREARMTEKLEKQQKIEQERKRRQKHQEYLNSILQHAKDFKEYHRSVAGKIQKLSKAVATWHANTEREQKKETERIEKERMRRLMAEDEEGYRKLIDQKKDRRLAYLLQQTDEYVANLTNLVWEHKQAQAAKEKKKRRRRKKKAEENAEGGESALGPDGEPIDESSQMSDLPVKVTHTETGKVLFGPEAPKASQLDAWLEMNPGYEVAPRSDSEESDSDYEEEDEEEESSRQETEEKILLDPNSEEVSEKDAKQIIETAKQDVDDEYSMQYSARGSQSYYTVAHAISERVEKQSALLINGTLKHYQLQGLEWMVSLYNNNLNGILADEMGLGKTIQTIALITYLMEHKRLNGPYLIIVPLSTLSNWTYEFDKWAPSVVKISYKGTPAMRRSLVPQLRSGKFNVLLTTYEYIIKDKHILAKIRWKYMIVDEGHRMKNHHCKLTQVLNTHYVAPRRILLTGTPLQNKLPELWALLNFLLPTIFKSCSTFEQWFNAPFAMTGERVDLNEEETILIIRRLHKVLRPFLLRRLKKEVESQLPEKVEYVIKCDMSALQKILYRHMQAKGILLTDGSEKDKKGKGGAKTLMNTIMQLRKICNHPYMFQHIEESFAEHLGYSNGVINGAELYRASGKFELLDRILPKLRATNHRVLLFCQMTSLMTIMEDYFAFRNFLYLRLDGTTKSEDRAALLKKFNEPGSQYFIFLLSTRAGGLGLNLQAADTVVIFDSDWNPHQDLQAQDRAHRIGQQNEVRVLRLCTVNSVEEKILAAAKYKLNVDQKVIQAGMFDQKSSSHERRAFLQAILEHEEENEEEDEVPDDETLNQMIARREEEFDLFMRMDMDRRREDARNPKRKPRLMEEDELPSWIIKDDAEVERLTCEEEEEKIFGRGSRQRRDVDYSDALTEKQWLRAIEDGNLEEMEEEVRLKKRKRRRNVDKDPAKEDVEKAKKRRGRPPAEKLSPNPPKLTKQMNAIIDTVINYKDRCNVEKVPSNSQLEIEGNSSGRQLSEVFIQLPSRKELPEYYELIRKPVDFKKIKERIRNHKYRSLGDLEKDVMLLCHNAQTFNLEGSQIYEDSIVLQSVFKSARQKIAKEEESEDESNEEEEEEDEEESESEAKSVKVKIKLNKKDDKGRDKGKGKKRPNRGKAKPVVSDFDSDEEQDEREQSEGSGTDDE

Nc1nnc(-c2ccccc2O)cc1OCCC12CC(NC(=O)CCCCCCOc3cccc4c3C(=O)N(C3CCC(=O)NC3=O)C4=O)(C1)C2 (centres unmarked) [Compound 20, N-[3-(2-[[3-amino-6-(2-hydroxyphenyl)pyridazin-4-yl]oxy]ethyl)bicyclo[1.1.1]pentan-1-yl]-7-[[2-(2,6-dioxopiperidin-3-yl)-1,3-dioxoisoindol-4-yl]oxy]heptanamide]
BRM HiBit Degradation Maximum (%) (HiBit-BRM fusion protein): C (“C” indicates maximum degradation < 50%) | Dmax [1]: < 50%

Nc1nnc(-c2ccccc2O)cc1OCC12CC(C(=O)NCCC3CCN(c4ccc5c(c4)C(=O)N(C4CCC(=O)NC4=O)C5=O)CC3)(C1)C2 (centres unmarked) [Compound 104, 3-(((3-amino-6-(2-hydroxyphenyl)pyridazin-4-yl)oxy)methyl)-N-(2-(1-(2-(2,6-dioxopiperidin-3-yl)-1,3-dioxoisoindolin-5-yl)piperidin-4-yl)ethyl)bicyclo[1.1.1]pentane-1-carboxamide]
BRM HiBit Degradation Maximum (%) (HiBit-BRM fusion protein): C (“C” indicates maximum degradation < 50%) | Dmax [1]: < 50%

Nc1nnc(-c2ccccc2O)cc1OCC12CC(CNC(=O)CCN3CCN(c4ccc5c(c4)C(=O)N(C4CCC(=O)NC4=O)C5=O)CC3)(C1)C2 (centres unmarked) [Compound 16, N-((3-(((3-amino-6-(2-hydroxyphenyl)pyridazin-4-yl)oxy)methyl)bicyclo[1.1.1]pentan-1-yl)methyl)-3-(4-(2-(2,6-dioxopiperidin-3-yl)-1,3-dioxoisoindolin-5-yl)piperazin-1-yl) propanamide]
BRM HiBit Degradation Maximum (%) (HiBit-BRM fusion protein): C (“C” indicates maximum degradation < 50%) | Dmax [1]: < 50%

Cc1ncsc1-c1ccc(CNC(=O)[C@@H]2C[C@@H](O)CN2C(=O)[C@@H](NC(=O)CCCCCCCCCCCCC(=O)NCC23CC(COc4cc(-c5ccccc5O)nnc4N)(C2)C3)C(C)(C)C)cc1 [Compound 40, N1-((3-(((3-amino-6-(2-hydroxyphenyl)pyridazin-4-yl)oxy)methyl)bicyclo[1.1.1]pentan-1-yl)methyl)-N14-((S)-1-((2S,4R)-4-hydroxy-2-((4-(4-methylthiazol-5-yl)benzyl)carbamoyl)pyrrolidin-1-yl)-3,3-dimethyl-1-oxobutan-2-yl)tetradecanediamide]
BRM HiBit Degradation Maximum (%) (HiBit-BRM fusion protein): B (“B” indicates maximum degradation ≥ 50%) | Dmax [1]: < 50%

Nc1nnc(-c2ccccc2O)cc1OCC12CC(C(=O)NCCOCCOCCOCCNC(=O)COc3cccc4c3C(=O)N(C3CCC(=O)NC3=O)C4=O)(C1)C2 (centres unmarked) [Compound 92, 3-(((3-amino-6-(2-hydroxyphenyl)pyridazin-4-yl)oxy)methyl)-N-(1-((2-(2,6-dioxopiperidin-3-yl)-1,3-dioxoisoindolin-4-yl)oxy)-2-oxo-6,9,12-trioxa-3-azatetradecan-14-yl)bicyclo[1.1.1]pentane-1-carboxamide]
BRM HiBit Degradation Maximum (%) (HiBit-BRM fusion protein): C (“C” indicates maximum degradation < 50%) | Dmax [1]: < 50%

Nc1nnc(-c2ccccc2O)cc1OCC12CC(CNC(=O)CCCCOc3cccc4c3C(=O)N(C3CCC(=O)NC3=O)C4=O)(C1)C2 (centres unmarked) [Compound 3, N-[[3-([[3-amino-6-(2-hydroxyphenyl)pyridazin-4-yl]oxy]methyl)bicyclo[1.1.1]pentan-1-yl]methyl]-5-[[2-(2,6-dioxopiperidin-3-yl)-1,3-dioxoisoindol-4-yl]oxy]pentanamide]
BRM HiBit Degradation Maximum (%) (HiBit-BRM fusion protein): C (“C” indicates maximum degradation < 50%) | Dmax [1]: < 50%

Cc1ncsc1-c1ccc(CNC(=O)[C@@H]2C[C@@H](O)CN2C(=O)[C@@H](NC(=O)CCCCCCCCCCCCC(=O)NC23CC(CCOc4cc(-c5ccccc5O)nnc4N)(C2)C3)C(C)(C)C)cc1 [Compound 49, N1-(3-(2-((3-amino-6-(2-hydroxyphenyl)pyridazin-4-yl)oxy)ethyl)bicyclo[1.1.1]pentan-1-yl)-N14-((S)-1-((2S,4R)-4-hydroxy-2-((4-(4-methylthiazol-5-yl)benzyl)carbamoyl)pyrrolidin-1-yl)-3,3-dimethyl-1-oxobutan-2-yl)tetradecanediamide]
BRM HiBit Degradation Maximum (%) (HiBit-BRM fusion protein): C (“C” indicates maximum degradation < 50%) | Dmax [1]: < 50%

Cc1ncsc1-c1ccc(CNC(=O)[C@@H]2C[C@@H](O)CN2C(=O)[C@@H](NC(=O)COCCOCCNC(=O)C23CC(COc4cc(-c5ccccc5O)nnc4N)(C2)C3)C(C)(C)C)cc1 [Compound 68, (2S,4R)-1-((S)-1-(3-(((3-amino-6-(2-hydroxyphenyl)pyridazin-4-yl)oxy)methyl)bicyclo[1.1.1]pentan-1-yl)-12-(tert-butyl)-1,10-dioxo-5,8-dioxa-2,11-diazatridecan-13-oyl)-4-hydroxy-N-(4-(4-methylthiazol-5-yl)benzyl)pyrrolidine-2-carboxamide; formic acid]
BRM HiBit Degradation Maximum (%) (HiBit-BRM fusion protein): C (“C” indicates maximum degradation < 50%) | Dmax [1]: < 50%

Nc1nnc(-c2ccccc2O)cc1OCC12CC(CNC(=O)C3CCN(CCOc4ccc5c(c4)C(=O)N(C4CCC(=O)NC4=O)C5=O)CC3)(C1)C2 (centres unmarked) [Compound 15, N-((3-(((3-amino-6-(2-hydroxyphenyl)pyridazin-4-yl)oxy)methyl)bicyclo[1.1.1]pentan-1-yl)methyl)-1-(2-((2-(2,6-dioxopiperidin-3-yl)-1,3-dioxoisoindolin-5-yl)oxy)ethyl)piperidine-4-carboxamide]
BRM HiBit Degradation Maximum (%) (HiBit-BRM fusion protein): C (“C” indicates maximum degradation < 50%) | Dmax [1]: < 50%

Nc1nnc(-c2ccccc2O)cc1OCC12CC(C(=O)NCCCCNc3ccc4c(c3)C(=O)N(C3CCC(=O)NC3=O)C4=O)(C1)C2 (centres unmarked) [Compound 62, formic acid]
BRM HiBit Degradation Maximum (%) (HiBit-BRM fusion protein): C (“C” indicates maximum degradation < 50%) | Dmax [1]: < 50%
